Reference: patent US20260049075A1, “CYTOTOXIC IMIDAZO[1,2-A]PYRIDINE COMPOUNDS AND THEIR USE IN THERAPY” (MyricX Pharma Limited, priority 2022, published 2026)

Tests used:
[1] = Body weight in BT474 xenograft study; format: in vivo, mouse; conditions: 2 mg/kg IV, 2 days dosing then 5 day holiday; terminated early
Procedure: During the study, body weights were measured three times weekly for all animals. Animals were given Diet Gel for the entire duration on the study.

[2] = tested on: BT474 breast cancer cells; experiment: Orthotopic breast cancer xenograft model (BT474), tumour volume; format: in vivo, mouse; conditions: 2.0 mg/kg IV, 2 days dosing then 5 day holiday; stopped at day 13
Procedure: NOD/SCID mice were implanted with estrogen pellets (17β-estradiol, 60 day release, 0.36 mg) subcutaneously in the right flank one day before the tumour inoculation. On day −8 each mouse was then injected in the right mammary fat pad with 1×10^7 viable BT474 breast cancer cells resuspended in 0.2 mL of Phosphate Buffered Saline mixed with matrigel (1:1). Mice were assigned to treatment groups when tumour volumes averaged 149.78 mm^3 on study day 0. […] The study was terminated on Study Day 35. […] Each group was comprised of 10 mice. Tumour volumes in mice were measured three times per week and tumour volume was calculated using the formula 0.5 (L×W^2). […] Statistical analyses were carried out on tumour readings for Groups 1, 2, 3, 4 and 5 up to Study Day 23 (after this point >50% of the animals within one of the study groups were lost; Group 2) using two-way ANOVA, or a Mixed-Effects model was fitted when values were missing from groups (PRISM GraphPad Software Inc.). Statistical analysis of Group 6 was conducted until day 12 (at this point the study was terminated due to the significant loss of observed body weight). Using a ROUT outlier analysis in GraphPad Prism, one mouse in Group 5 was identified as an outlier across all timepoints (at the 5% confidence level) and has therefore been excluded from analysis. […]

human NMT1 (HsNMT1) = target: T1, human NMT1 (HsNMT1) (Homo sapiens, UniProt P30419); experiment: HsNMT1 sensitive fluorescence-based assay (CoA detection with CPM); format: biochemical
T1 sequence (P30419 1-496): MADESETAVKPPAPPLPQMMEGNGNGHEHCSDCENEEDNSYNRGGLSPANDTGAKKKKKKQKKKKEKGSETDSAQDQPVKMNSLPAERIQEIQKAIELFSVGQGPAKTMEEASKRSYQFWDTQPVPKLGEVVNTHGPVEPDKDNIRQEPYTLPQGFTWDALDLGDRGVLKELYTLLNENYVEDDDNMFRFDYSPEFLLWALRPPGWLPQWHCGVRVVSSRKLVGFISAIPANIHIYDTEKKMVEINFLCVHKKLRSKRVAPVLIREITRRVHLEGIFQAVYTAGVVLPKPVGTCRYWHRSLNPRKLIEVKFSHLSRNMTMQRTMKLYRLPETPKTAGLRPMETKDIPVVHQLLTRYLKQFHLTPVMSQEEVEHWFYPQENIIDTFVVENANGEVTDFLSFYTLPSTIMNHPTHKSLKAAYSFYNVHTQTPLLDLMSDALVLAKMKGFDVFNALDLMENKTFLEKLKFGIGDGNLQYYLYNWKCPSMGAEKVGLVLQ

DOHH-2 tumor cells = experiment: Subcutaneous xenograft DOHH-2 Lymphoma Model; format: in vivo, mouse; conditions: CB17/SCID mice
Procedure: The in vivo efficacy of certain Example compounds was assessed in a subcutaneous xenograft DOHH-2 Lymphoma Model using 10 female 6-8 week old CB17/SCID Mice. Each mouse was inoculated subcutaneously at the right front region with DOHH-2 tumor cells (5×10^6) in 0.1 ml of PBS mixed with matrigel (1:1 PBS:matrigel) for tumor development. The test compound administration started once the mean tumor size reached approximately 100-150 mm^3. Compounds were administered either IP (vehicle 10 mM sodium phosphate+0.2% Tween-80 (pH7.4) or orally (vehicle 15 Na2HPO4 buffer (10 mM) (pH 4.5)+0.2% tween 80). Tumor volumes were measured in two dimensions using a caliper, and the volume expressed in mm^3 using the formula: V=(L×W×W)/2, where V is tumor volume, L is tumor length (the longest tumor dimension) and W is tumor width (the longest tumor dimension perpendicular to L). Mice were dosed with Example 21 orally (12.5 or 25 mg/kg) once a day for 9 consecutive days (FIG. 3). Example 5 was dosed intraperitoneally (7 or 20 mg/kg) in a cycle consisting of administration QD for three days followed by a three day no-dosing period followed by QD dosing for a further three days (FIG. 4). Example 12 was dosed intraperitoneally (0.7 or 2 mg/kg) in a cycle consisting of administration QD for three days followed by a three day no-dosing period followed by QD dosing for a further three days (FIG. 5). In a separate study Example 12 was dosed at […] in a cycle consisting of administration QD for two days followed by either four or six day no-dosing period, and this cycle was repeated three times (FIG. 6).
The protocol and any amendment(s) or procedures involving the care and use of animals in this study were reviewed and approved by the Institutional Animal Care and Use Committee (IACUC) of CrownBio prior to execution. During the study, the care and use of animals was conducted in accordance with the regulations of the Association for Assessment and Accreditation of Laboratory Animal Care (AAALAC).

LNCaP tumour cells = experiment: LNCaP prostate cancer xenograft model, tumour volume; format: in vivo, mouse; conditions: for Day 28 tumour volume (mm^3, mean ± SEM) / Tumour growth inhibition (TGI, %): IV, Q7D (x3); for Day 28 tumour volume (mm^3, mean ± SEM): NOD SCID mice; for Tumour growth inhibition (TGI, %): day 28
Excerpt: A total of 84 male NOD SCID mice aged 5-8 weeks and weighing 25-30 g were used for the study.

VcaP tumour cells = experiment: VcaP prostate cancer xenograft model, tumour volume; format: in vivo, mouse; conditions: for ΔTGI (Study Day 17): CB17/SCID mice
Excerpt: All mice received two doses of test agent, on Study Day 1 and Study Day 8. The study was terminated on Study Day 30.

JIMT-1 tumour cells = experiment: JIMT-1 breast cancer xenograft model, tumour volume; format: in vivo, mouse
Procedure: 80 mice were assigned to 8 treatment groups when tumour volumes averaged ˜160.66 mm^3 on Study Day 0. Dosing commenced the following day and all animals were dosed intravenously with ADC Example 3, sacituzumab govitecan or unconjugated sacituzumab. The study was terminated on the Study Day 60.

[3] = intraperitoneal dosing, Example 5 7 or 20 mg/kg, Example 12 0.7 or 2 mg/kg, QD cycles

Which body weights [1] does the source give for `CNCc1cnc2ccc(-c3ccc(F)c(F)c3OCCc3c(C(O)C(C)(C)C)nn(C)c3C)cn12` (single isomer, unassigned) [Example 12, 1-(4-(2-(2,3-difluoro-6-(3-((methylamino)methyl)imidazo[1,2-a]pyridin-6-yl)phenoxy)ethyl)-1,5-dimethyl-1H-pyrazol-3-yl)-2,2-dimethylpropan-1-ol] here?
The body weights was “decreased significantly”.

And the tumour size [2]?
Its tumour size is “reduced tumour size”.

And the IC50 (human NMT1 (HsNMT1))?
The IC50 was 2.1 nM.

What about the “tumour volume compared to vehicle” value (DOHH-2 tumor cells; [3]) of the same molecule?
Its value is “significant reduction in tumour volume or reduced growth in tumour volume”.

Which IC50 (human NMT1 (HsNMT1)) does the source give for `CNCc1cnc2ccc(-c3ccc(F)cc3OCCc3c(C(C)O)nn(C)c3C)cn12` (stereo not shown) [Example 1, 1-{4-[2-(5-fluoro-2-{3-[(methylamino)methyl]imidazo[1,2-a]pyridin-6-yl}phenoxy)ethyl]-1,5-dimethyl-1H-pyrazol-3-yl}ethan-1-ol] here?
Its IC50 is 2.2 nM.

With `CNCc1cnc2ccc(-c3ccc(F)c(F)c3OCCc3c(C(C)O)nn(C)c3C)cn12` (stereo not shown) [Example 5, 1-{4-[2-(2,3-difluoro-6-{3-[(methylamino)methyl]imidazo[1,2-a]pyridin-6-yl}phenoxy)ethyl]-1,5-dimethyl-1H-pyrazol-3-yl}ethan-1-ol] as the molecule, how does the IC50 (human NMT1 (HsNMT1)) read?
The IC50 was 2.2 nM.

What about the “tumour volume compared to vehicle” value (DOHH-2 tumor cells; [3]) of the same molecule?
Its value is “significant reduction in tumour volume or reduced growth in tumour volume”.

Which IC50 (human NMT1 (HsNMT1)) does the source give for `Cc1c(CCOc2cc(F)ccc2-c2ccc3ncc(CCN)n3c2)c(C(C)O)nn1C` (stereo not shown) [Example 7, 1-(4-(2-(2-(3-(2-aminoethyl)imidazo[1,2-a]pyridin-6-yl)-5-fluorophenoxy)ethyl)-1,5-dimethyl-1H-pyrazol-3-yl)ethan-1-ol] here?
The IC50 was 9 nM.

For `Cc1c(CCOc2c(-c3ccc4ncc(CN)n4c3)ccc(F)c2F)c(C(O)C(C)(C)C)nn1C` (stereo not shown) [Example 17, 1-(4-(2-(6-(3-(aminomethyl)imidazo[1,2-a]pyridin-6-yl)-2,3-difluorophenoxy)ethyl)-1,5-dimethyl-1H-pyrazol-3-yl)-2,2-dimethylpropan-1-ol], which IC50 (human NMT1 (HsNMT1)) is on record?
The IC50 was 2 nM.

Which IC50 (human NMT1 (HsNMT1)) does the source give for `Cc1c(CCOc2c(-c3ccc4ncc(CN)n4c3)ccc(F)c2F)c(C(C)(C)O)nn1C` [Example 20, 2-[4-(2-{6-[3-(aminomethyl)imidazo[1,2-a]pyridin-6-yl]-2,3-difluorophenoxy}ethyl)-1,5-dimethyl-1H-pyrazol-3-yl]propan-2-ol] here?
The IC50 was 2 nM.

Which “tumour volume compared to vehicle” value (DOHH-2 tumor cells; oral dosing 12.5 or 25 mg/kg once a day for 9 days) does the source give for `CNCc1cnc2ccc(-c3ccc(F)c(F)c3OCCc3c(C(C)(C)O)nn(C)c3C)cn12` [Example 21, 2-(4-(2-(2,3-difluoro-6-(3-((methylamino)methyl)imidazo[1,2-a]pyridin-6-yl)phenoxy)ethyl)-1,5-dimethyl-1H-pyrazol-3-yl)propan-2-ol] here?
Its value is “significant reduction in tumour volume or reduced growth in tumour volume”.

With `CCNCc1cnc2ccc(-c3ccc(F)cc3OCCc3c(C(C)(C)O)nn(C)c3C)cn12` [Example 22, 2-{4-[2-(2-{3-[(ethylamino)methyl]imidazo[1,2-a]pyridin-6-yl}-5-fluorophenoxy)ethyl]-1,5-dimethyl-1H-pyrazol-3-yl}propan-2-ol] as the molecule, how does the IC50 (human NMT1 (HsNMT1)) read?
Its IC50 is 3 nM.

With `CNCc1cnc2ccc(-c3ccc(F)c(F)c3OCCc3c(C(O)C(C)C)nn(C)c3C)cn12` (stereo not shown) [Example 25, 1-{4-[2-(2,3-difluoro-6-{3-[(methylamino)methyl]imidazo[1,2-a]pyridin-6-yl}phenoxy)ethyl]-1,5-dimethyl-1H-pyrazol-3-yl}-2-methylpropan-1-ol] as the molecule, how does the IC50 (human NMT1 (HsNMT1)) read?
The IC50 was 2 nM.

What does the source list for “ifinatamab: antibody binding CD276 (B7-H3); heavy chain SEQ ID NO: 6, light chain SEQ ID NO: 5”?
effect on LNCaP tumour volume compared to vehicle (LNCaP tumour cells; 5 mg/kg): no significant effect; Day 28 tumour volume (mm^3, mean ± SEM) (LNCaP tumour cells; 5 mg/kg): 551.4 ± 73.1 mm^3; Tumour growth inhibition (TGI, %) (LNCaP tumour cells; 5 mg/kg): 30.6%; effect on LNCaP tumour volume compared to vehicle (LNCaP tumour cells; 10 mg/kg): no significant effect; Day 28 tumour volume (mm^3, mean ± SEM) (LNCaP tumour cells; 10 mg/kg): 666.56 ± 103.2 mm^3; Tumour growth inhibition (TGI, %) (LNCaP tumour cells; 10 mg/kg): 13.0%; tumour volume compared to vehicle alone (VcaP tumour cells; 2.5 mg/kg): no significant difference; ΔTGI (Study Day 17) (VcaP tumour cells; 2.5 mg/kg IV QW x 2 weeks): 8.47%; tumour volume compared to vehicle alone (VcaP tumour cells; 5 mg/kg): no significant difference; ΔTGI (Study Day 17) (VcaP tumour cells; 5 mg/kg IV QW x 2 weeks): 12.44%

With sacituzumab as the molecule, how does the “tumour volume compared to vehicle alone” value (JIMT-1 tumour cells; 2.5 mg/kg) read?
The value was “no significant difference”.

What about the “tumour volume compared to vehicle alone” value (JIMT-1 tumour cells; 5 mg/kg) of the same molecule?
Its value is “significant decrease in tumour volume”.

For “sacituzumab govitecan [reference compound]”, which “tumour volume compared to vehicle alone” value (JIMT-1 tumour cells; 2.5 mg/kg) is on record?
Its value is “significant decrease in tumour volume”.

And the “tumour volume compared to vehicle alone” value (JIMT-1 tumour cells; 5 mg/kg)?
The value was “significant decrease in tumour volume”.

B1: ifinatamab-DXd (conjugate, chains of the INN, looked up)
VH: QVQLVQSGAEVKKPGSSVKVSCKASGYTFTNYVMHWVRQAPGQGLEWMGYINPYNDDVKYNEKFKGRVTITADESTSTAYMELSSLRSEDTAVYYCARWGYYGSPLYYFDYWGQGTLVTVSS
VL: EIVLTQSPATLSLSPGERATLSCRASSRLIYMHWYQQKPGQAPRPLIYATSNLASGIPARFSGSGSGTDFTLTISSLEPEDFAVYYCQQWNSNPPTFGQGTKVEIK
modifications: deruxtecan (DXd) payload
Which “effect on LNCaP tumour volume compared to vehicle” value (LNCaP tumour cells; 5 mg/kg) does the source give for B1 here?
Its value is “slowed the growth of LNCaP tumours to a lesser extent”.

What about the “Day 28 tumour volume (mm^3, mean ± SEM)” value (LNCaP tumour cells; 5 mg/kg) of the same molecule?
The value was 364.6 ± 51.7 mm^3.

What about the “Tumour growth inhibition (TGI, %)” value (LNCaP tumour cells; 5 mg/kg) of the same molecule?
The value was 58.8%.

And the “effect on LNCaP tumour volume compared to vehicle” value (LNCaP tumour cells; 10 mg/kg)?
Its value is “significantly reduced the mean volume”.

And the “Day 28 tumour volume (mm^3, mean ± SEM)” value (LNCaP tumour cells; 10 mg/kg)?
The value was 259.5 ± 50.3 mm^3.

What about the “Tumour growth inhibition (TGI, %)” value (LNCaP tumour cells; 10 mg/kg) of the same molecule?
Its value is 75.0%.

What about the “tumour volume compared to vehicle alone” value (VcaP tumour cells; 2.5 mg/kg) of the same molecule?
Its value is “no significant difference”.

And the “ΔTGI (Study Day 17)” value (VcaP tumour cells; 2.5 mg/kg IV QW x 2 weeks)?
The value was 5.24%.

What about the “tumour volume compared to vehicle alone” value (VcaP tumour cells; 5 mg/kg) of the same molecule?
The value was “significantly higher tumour volume”.

What about the “ΔTGI (Study Day 17)” value (VcaP tumour cells; 5 mg/kg IV QW x 2 weeks) of the same molecule?
Its value is 2.86%.
